The test system of the test is human neutrophils. Briefly: Expansion of nuclei (area of DAPI-stained nuclei) in PMA-treated human neutrophils. In kind it is cell-based. As to conditions: 1 μM PMA; FIGS. 1C and 1D. As for the experimental part: FIGS. 1A-H. Class I/II HDACs drive NET formation • (A and B) Freshly purified human (A) or mouse (B) neutrophils were treated with the indicated HDAC inhibitors at different doses (10, 2, 0.4, 0.08 μM), or with GSK484 (10 μM), for 1 h and then stimulated with 1 μM PMA for 3 h. Cells were fixed and stained with anti-citrullinated histone H3 (CitH3) antibody. NETosis induction was measured as the level of anti-CitH3 fluorescent signal. PMA alone represents 100% of NET induction. “-”: Cells treated with the highest dose of the indicated drug but not activated with PMA. • (C and D) Human neutrophils were treated, or not, with ricolinostat or GSK484 and then stimulated with 1 μM PMA. NETosis induction was measured as area of nuclei stained with DAPI. (C) 3D reconstruction of nuclei in each treatment (grid size 7.8 μm). (D) Quantification of DAPI signal from multiple fields of view (D) (n=9 for unstimulated, not pretreated with any drug [NT] and ricolinostat, n=7 for GSK484). • (E and F) Human neutrophils were treated as in (C-D), and immunoblot analysis of the indicated proteins was performed. Relative quantification of band intensity was analyzed with ImageJ software (F). White violins plots depict the quantification of histone H3 acetylation; red violin plots depict the quantification of histone H3 citrullination. […] ROS production was measured by luminescence with luminol-HRP. […]

On to `O=C(CCCCCCNC(=O)c1cnc(N(c2ccccc2)c2ccccc2)nc1)NO` [ricolinostat], for which the “expansion of nuclei (area of nuclei stained with DAPI)” value was “significantly reduced”.
